Data as given in patent US20140221414A1 (priority 2009, published 2014).
Converted amounts (≈) assume the structure as drawn. Where two headings read alike, the source gives them in different places.

Columns and labels:
[1] = oral 400 mg, healthy volunteers, cited from earlier work
Yersinia enterocolitica = settings: 74 strains; cited from earlier work
Vibrio cholerae = settings: 403 strains; cited from earlier work
Other = settings: 21 strains; cited from earlier work
Salmonella species = settings: 46 strains; cited from earlier work
Helicobacter pylori = settings: 40 strains; MIC50 instead of MIC90; cited from earlier work
[2] = test system: Escherichia coli Enteroaggregative; settings: 75 strains; cited from earlier work
E. Coli = experiment: Anti-microbial activity by cup plate / well plate method (zone of inhibition); format: cell-based; settings: 200 μl per well, 37° C., 24 hrs
Procedure: The measurement of zone diameters estimates the susceptibility of bacteria to antimicrobial compounds.
Prepare a nutrient agar medium in distilled water and sterilize this media in autoclave at 121° C. for 15 min. Transfer this media aseptically in sterile petriplate, allow the media to solidify for few minutes. After solidification, add test micro-organism i.e. E. Coli (100 μl) in each plate and spread this culture with the help of spreader. Prepare the well in plate with the help of borer.

Shigella species = settings: 36 strains; cited from earlier work
[3] = test system: MDCK (Mardin Darby Canine Kidney Cells) cells; experiment: Permeability study using MDCK cells in transwell plates; format: in vitro ADME; settings: 10 μmolar apical, 37° C., 2 hours
Procedure: Three well are to be used per sample. Plates are placed in shaking water bath at 37° C. for 2 hours. Take out 20 μl from apical and 100 μl from basolateral side for sample processing at […]. Lucifer Yellow is used as a marker to see the monolayer integrity of the cells. Propronalol is used as a permeability marker.
Relative area in apical remain 100% even after 2 hours.

[4] = test system: Escherichia coli Enterotoxigenic; settings: 97 strains; cited from earlier work
Campylobacter jejuni = settings: cited from earlier work
physchem = format: physicochemical; settings: thermodynamic from solid
Text: Another embodiment relates to various methods for screening and analyzing methods and preparations that are intended to enhance the dissolution of poorly soluble drugs. These analysis methods include dissolution studies, saturation solubility studies, wettability studies, permeation studies, X-ray diffraction studies etc.

Row | SMILES | dose recovered in feces ([1]; almost entirely as unchanged drug) | dose recovered in the urine [1] [%] | MIC90 (Yersinia enterocolitica) [µg/mL] | MIC90 (Vibrio cholerae) [µg/mL] | MIC90 (Other) [µg/mL] | MIC90 (Salmonella species) [µg/mL] | MIC50 (Helicobacter pylori) | MIC90 [2] [µg/mL] | area of zone of inhibition (E. Coli) | MIC90 (Shigella species) [µg/mL] | amount found in the basolateral side of the transwell (apparent permeability) [3] | MIC90 [4] [µg/mL] | MIC90 (Campylobacter jejuni; 9 strains) [µg/mL] | MIC90 (Campylobacter jejuni; 54 strains) [µg/mL] | solubility (physchem; pH 6.8, aqueous buffer) [µg/mL] | solubility (physchem; water) [µg/mL]
1 | CO[C@H]1/C=C/O[C@@]2(C)Oc3c(C)c(O)c4c(O)c(c5c(nc6cc(C)ccn65)c4c3C2=O)NC(=O)/C(C)=C\C=C\[C@H](C)[C@H](O)[C@@H](C)[C@@H](O)[C@@H](C)[C@H](OC(C)=O)[C@@H]1C [14C-rifaximin] | approximately 97% | 0.32 |  |  |  |  |  |  |  |  |  |  |  |  |  | 
2 | CO[C@H]1/C=C/O[C@@]2(C)Oc3c(C)c(O)c4c(O)c(c5c(nc6cc(C)ccn65)c4c3C2=O)NC(=O)/C(C)=C\C=C\[C@H](C)[C@H](O)[C@@H](C)[C@@H](O)[C@@H](C)[C@H](OC(C)=O)[C@@H]1C [rifaximin] |  |  | 16 (≈ 20.4 µM) | 4 (≈ 5.09 µM) | 4 (≈ 5.09 µM) | 64 (≈ 81.4 µM) | 4 (MIC50) μg/ml | 32 (≈ 40.7 µM) | very negligible | 64 (≈ 81.4 µM) | No detectable amount | 32 (≈ 40.7 µM) | 32 (≈ 40.7 µM) | 128 (≈ 163 µM) | 10 (≈ 12.7 µM) | < 10
